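Step 1: Grow cells in 96-well plates. Step 2: Expose to compound for 48 hours at 5 concentrations. Step 3: Interpolate endpoints linearly; if unreached, use highest concentration. Abbreviation: GI50, concentration required for 50% inhibition of growth. TGI: total growth inhibition.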
Experiments:
Assay in all cases: inhibition of tumour cell growth, NCI panel, 48 h
SF-268 CNS = tested on: SF-268 CNS
HCT-15 colon = tested on: HCT-15 colon
SF-539 CNS = tested on: SF-539 CNS
UO-31 renal = tested on: UO-31 renal
ACHN renal = tested on: ACHN renal
OVCAR-4 ovarian = tested on: OVCAR-4 ovarian
HOP-92 NSCLC = tested on: HOP-92 NSCLC
M14 melanoma = tested on: M14 melanoma
U251 CNS = tested on: U251 CNS
NCI-H23 lung = tested on: NCI-H23 lung
DU-145 prostate = tested on: DU-145 prostate
COLO 205 colon = tested on: COLO 205 colon
SNB-75 CNS = tested on: SNB-75 CNS
OVCAR-5 ovarian = tested on: OVCAR-5 ovarian
K-562 leukemia = tested on: K-562 leukemia
SN12C renal = tested on: SN12C renal
SK-MEL-5 melanoma = tested on: SK-MEL-5 melanoma
OVCAR-3 ovarian = tested on: OVCAR-3 ovarian
UACC-257 melanoma = tested on: UACC-257 melanoma
HS 578T breast = tested on: HS 578T breast
KM12 colon = tested on: KM12 colon
BT-549 breast = tested on: BT-549 breast
SK-OV-3 ovarian = tested on: SK-OV-3 ovarian
UACC-62 melanoma = tested on: UACC-62 melanoma
MCF7 breast = tested on: MCF7 breast
CAKI-1 renal = tested on: CAKI-1 renal
TK-10 renal = tested on: TK-10 renal
IGROV1 ovarian = tested on: IGROV1 ovarian
SW-620 colon = tested on: SW-620 colon
A549 NSCLC = tested on: A549 NSCLC
EKVX NSCLC = tested on: EKVX NSCLC
NCI-H226 lung = tested on: NCI-H226 lung
LOX IMVI melanoma = tested on: LOX IMVI melanoma
MOLT-4 leukemia = tested on: MOLT-4 leukemia
HCT-116 colon = tested on: HCT-116 colon
RPMI-8226 leukemia = tested on: RPMI-8226 leukemia
786-0 renal = tested on: 786-0 renal
MDA-MB-435 = tested on: MDA-MB-435
SNB-19 CNS = tested on: SNB-19 CNS
T-47D breast = tested on: T-47D breast
MALME-3M melanoma = tested on: MALME-3M melanoma
OVCAR-8 ovarian = tested on: OVCAR-8 ovarian
MDA-MB-231 breast = tested on: MDA-MB-231 breast
HL-60(TB) leukemia = tested on: HL-60(TB) leukemia
NCI/ADR-RES ovarian = tested on: NCI/ADR-RES ovarian
SK-MEL-2 melanoma = tested on: SK-MEL-2 melanoma
A498 renal = tested on: A498 renal
NCI-H522 lung = tested on: NCI-H522 lung
PC-3 prostate = tested on: PC-3 prostate
SF-295 CNS = tested on: SF-295 CNS
HT29 colon = tested on: HT29 colon
HOP-62 NSCLC = tested on: HOP-62 NSCLC
SK-MEL-28 melanoma = tested on: SK-MEL-28 melanoma
CCRF-CEM leukemia = tested on: CCRF-CEM leukemia
RXF 393 renal = tested on: RXF 393 renal
SR leukemia = tested on: SR leukemia
NCI-H460 lung = tested on: NCI-H460 lung
HCC-2998 colon = tested on: HCC-2998 colon

O=C(CCN1CCN2c3ccccc3CCC2C1)c1ccc(F)cc1 (configuration not stated)
TGI (SF-268 CNS): > 100 µM | TGI (HCT-15 colon): 55.1 µM | TGI (SF-539 CNS): 39.9 µM | TGI (UO-31 renal): 40.8 µM | TGI (ACHN renal): 43.3 µM | TGI (OVCAR-4 ovarian): 37.8 µM | TGI (HOP-92 NSCLC): 82.1 µM | TGI (M14 melanoma): > 100 µM | TGI (U251 CNS): > 100 µM | TGI (NCI-H23 lung): > 100 µM | TGI (DU-145 prostate): 90.3 µM | TGI (COLO 205 colon): 44.4 µM | TGI (SNB-75 CNS): 44.8 µM | TGI (OVCAR-5 ovarian): 62.2 µM | TGI (K-562 leukemia): > 100 µM | TGI (SN12C renal): > 100 µM | TGI (SK-MEL-5 melanoma): 49.9 µM | TGI (OVCAR-3 ovarian): 71.4 µM | TGI (UACC-257 melanoma): 97.1 µM | TGI (HS 578T breast): > 100 µM | TGI (KM12 colon): > 100 µM | TGI (BT-549 breast): 50 µM | TGI (SK-OV-3 ovarian): > 100 µM | TGI (UACC-62 melanoma): > 100 µM | TGI (MCF7 breast): 51.3 µM | TGI (CAKI-1 renal): 44.4 µM | TGI (TK-10 renal): 66 µM | TGI (IGROV1 ovarian): 47.9 µM | TGI (SW-620 colon): > 100 µM | TGI (A549 NSCLC): > 100 µM | TGI (EKVX NSCLC): 58.5 µM | TGI (NCI-H226 lung): 98.6 µM | TGI (LOX IMVI melanoma): > 100 µM | TGI (MOLT-4 leukemia): > 100 µM | TGI (HCT-116 colon): > 100 µM | TGI (RPMI-8226 leukemia): > 100 µM | TGI (786-0 renal): 43.6 µM | TGI (MDA-MB-435): 47.4 µM | TGI (SNB-19 CNS): 47.5 µM | TGI (T-47D breast): 45.9 µM | TGI (MALME-3M melanoma): 49.2 µM | TGI (OVCAR-8 ovarian): > 100 µM | TGI (MDA-MB-231 breast): > 100 µM | TGI (HL-60(TB) leukemia): 89.6 µM | TGI (NCI/ADR-RES ovarian): > 100 µM | TGI (SK-MEL-2 melanoma): 53.3 µM | TGI (A498 renal): > 100 µM | TGI (NCI-H522 lung): 35.7 µM | TGI (PC-3 prostate): > 100 µM | TGI (SF-295 CNS): > 100 µM | TGI (HT29 colon): 41.7 µM | TGI (HOP-62 NSCLC): 52.8 µM | TGI (SK-MEL-28 melanoma): 32.2 µM | TGI (CCRF-CEM leukemia): > 100 µM | TGI (RXF 393 renal): 43.3 µM | TGI (SR leukemia): > 100 µM | TGI (NCI-H460 lung): > 100 µM

COc1cnc2c(c1)C(=O)c1c-2n(CCCNCCO)c(=O)c2ccncc12
GI50 (SF-268 CNS): 1.28 µM | TGI (SF-268 CNS): 9.26 µM | GI50 (HCT-15 colon): 2.3 µM | TGI (HCT-15 colon): 13.7 µM | GI50 (SF-539 CNS): 1.4 µM | TGI (SF-539 CNS): 6.95 µM | GI50 (UO-31 renal): 1.3 µM | TGI (UO-31 renal): 10.1 µM | GI50 (ACHN renal): 0.553 µM | TGI (ACHN renal): 9.93 µM | GI50 (OVCAR-4 ovarian): 1.38 µM | TGI (OVCAR-4 ovarian): 7.46 µM | GI50 (HOP-92 NSCLC): 1.4 µM | TGI (HOP-92 NSCLC): 6.31 µM | GI50 (M14 melanoma): 1.93 µM | TGI (M14 melanoma): 7.16 µM | GI50 (U251 CNS): 0.708 µM | TGI (U251 CNS): 19.4 µM | GI50 (NCI-H23 lung): 1.65 µM | TGI (NCI-H23 lung): 6.91 µM | GI50 (DU-145 prostate): 1.36 µM | TGI (DU-145 prostate): 6.73 µM | GI50 (COLO 205 colon): 0.82 µM | TGI (COLO 205 colon): 9.05 µM | GI50 (SNB-75 CNS): 1.13 µM | TGI (SNB-75 CNS): 4.2 µM | GI50 (OVCAR-5 ovarian): 2.74 µM | TGI (OVCAR-5 ovarian): 20.5 µM | GI50 (K-562 leukemia): 0.856 µM | TGI (K-562 leukemia): 13 µM | GI50 (SN12C renal): 1.08 µM | TGI (SN12C renal): 13.6 µM | GI50 (SK-MEL-5 melanoma): 1.43 µM | TGI (SK-MEL-5 melanoma): 3.38 µM | GI50 (OVCAR-3 ovarian): 2.26 µM | TGI (OVCAR-3 ovarian): 9.73 µM | GI50 (UACC-257 melanoma): 2.18 µM | TGI (UACC-257 melanoma): 9.02 µM | GI50 (HS 578T breast): 2.32 µM | TGI (HS 578T breast): 10.7 µM | GI50 (HCC-2998 colon): 1.58 µM | TGI (HCC-2998 colon): 4.19 µM | GI50 (KM12 colon): 1.51 µM | TGI (KM12 colon): 11.7 µM | GI50 (BT-549 breast): 2.03 µM | TGI (BT-549 breast): 12.7 µM | GI50 (SK-OV-3 ovarian): 3.94 µM | TGI (SK-OV-3 ovarian): 61.3 µM | GI50 (UACC-62 melanoma): 0.552 µM | TGI (UACC-62 melanoma): 2.12 µM | GI50 (MCF7 breast): 0.303 µM | TGI (MCF7 breast): 11.3 µM | GI50 (CAKI-1 renal): 1.37 µM | TGI (CAKI-1 renal): 13 µM | GI50 (TK-10 renal): 2.05 µM | TGI (TK-10 renal): 19.3 µM | GI50 (IGROV1 ovarian): 2.65 µM | TGI (IGROV1 ovarian): > 100 µM | GI50 (SW-620 colon): 0.52 µM | TGI (SW-620 colon): 12.4 µM | GI50 (A549 NSCLC): 1.99 µM | TGI (A549 NSCLC): 9.38 µM | GI50 (EKVX NSCLC): 2.29 µM | TGI (EKVX NSCLC): 9.27 µM | GI50 (NCI-H226 lung): 0.601 µM | TGI (NCI-H226 lung): 3.65 µM | GI50 (LOX IMVI melanoma): 0.431 µM | TGI (LOX IMVI melanoma): 3.9 µM | GI50 (MOLT-4 leukemia): 0.405 µM | TGI (MOLT-4 leukemia): 10.2 µM | GI50 (HCT-116 colon): 0.489 µM | TGI (HCT-116 colon): 16.9 µM | GI50 (RPMI-8226 leukemia): 1.85 µM | TGI (RPMI-8226 leukemia): 7.58 µM | GI50 (MDA-MB-435): 1.31 µM | TGI (MDA-MB-435): 2.98 µM | GI50 (T-47D breast): 0.845 µM | TGI (T-47D breast): 37.5 µM | GI50 (MALME-3M melanoma): 1.1 µM | TGI (MALME-3M melanoma): 2.82 µM | GI50 (OVCAR-8 ovarian): 0.876 µM | TGI (OVCAR-8 ovarian): 23.7 µM | GI50 (MDA-MB-231 breast): 1.95 µM | TGI (MDA-MB-231 breast): 10.9 µM | GI50 (HL-60(TB) leukemia): 2.74 µM | TGI (HL-60(TB) leukemia): 11.4 µM | GI50 (NCI/ADR-RES ovarian): 5.83 µM | TGI (NCI/ADR-RES ovarian): 30.8 µM | GI50 (SK-MEL-2 melanoma): 1.81 µM | TGI (SK-MEL-2 melanoma): 4.75 µM | GI50 (A498 renal): 0.772 µM | TGI (A498 renal): 2.62 µM | GI50 (NCI-H522 lung): 0.607 µM | TGI (NCI-H522 lung): 7.26 µM | GI50 (PC-3 prostate): 1.44 µM | TGI (PC-3 prostate): 11.1 µM | GI50 (SF-295 CNS): 0.912 µM | TGI (SF-295 CNS): 7.89 µM | GI50 (HT29 colon): 0.633 µM | TGI (HT29 colon): 16.7 µM | GI50 (HOP-62 NSCLC): 1.32 µM | TGI (HOP-62 NSCLC): 26.6 µM | GI50 (SK-MEL-28 melanoma): 2.08 µM | TGI (SK-MEL-28 melanoma): 5.79 µM | GI50 (CCRF-CEM leukemia): 0.626 µM | TGI (CCRF-CEM leukemia): 12.5 µM | GI50 (RXF 393 renal): 1.2 µM | TGI (RXF 393 renal): 3.48 µM | GI50 (NCI-H460 lung): 0.513 µM | TGI (NCI-H460 lung): 3.99 µM
